{
  "source": "patent US20220031684A1",
  "about": "“PROPHYLACTIC EFFICACY OF SEROTONIN 4 RECEPTOR AGONISTS AGAINST STRESS” (THE TRUSTEES OF COLUMBIA UNIVERSITY IN THE CITY OF NEW YORK, priority 2019, published 2022)",
  "key": {"129S6/SvEv mice [1]": {"system": "129S6/SvEv mice", "test": "3-shock contextual fear conditioning (CFC)", "assay_type": "in vivo", "procedure": "(§1) This chronic CORT elevation dysregulates the hypothalamic-pituitary-adrenal axis (HPA) in a manner similar to that observed in clinical depression. The dose and duration of CORT treatment was selected based on previous studies. CORT (35 μg/ml, equivalent to about 5 mg/kg/day) dissolved in 0.45% hydroxypropyl-o-cyclodextrin (0-CD) or vehicle (VEH) (0.45% j-CD) was available ad libitum in the drinking water in opaque bottles to protect it from light. VEH- and CORT-treated water was changed every 3 days to prevent possible degradation. Contextual Fear Conditioning (CFC): A 3-shock CFC procedure was administered as previously published. Briefly, mice were placed into context A and administered 3 2-s shocks (0.75 mA) at 180 s, 240 s or 300 s following placement into context A. Mice were removed from the context 15 s following the termination of shock (at 317 s). For context retrieval, mice were placed back into context A for 300 s. Electrophysiology: Electrophysiology was conducted as previously described. Statistical Analysis: Results from data analyses are expressed as means±SEM. Alpha was set to 0.05 for all analyses. Data were analyzed using GraphPad Prism v7.0 or v8.0. For all experiments, unless otherwise noted, one- or two-way ANOVAs with repeated-measures were applied to the data as appropriate. Significant main effects and/or interactions were followed by Fisher's PLSD post hoc analysis or unpaired t-tests. Drugs: All drugs were prepared in physiological saline and all injections were administered intraperitoneally (i.p.) in volumes of 0.1 cc per […] body weight unless otherwise noted. Fluoxetine hydrochloride (Flx): Flx (BioTrend Chemicals AG, BG197, Zurich, Germany) was administered in the drinking water (18 mg/kg/day) for 3 weeks before the start of CORT. […] (R,S)-ketamine (K): (R,S)-ketamine (Ketaset III, Ketamine HCl injection, Fort Dodge Animal Health, Fort Dodge, Iowa) was administered in a single dose at 30 mg/kg of body weight 1 week before the start of CFC. […] PF-04995274: PF-04995274 (Sigma, Catalog No. 1331782-27-4, St. Louis, Mo.) was administered a single dose at 3 or 10 mg/kg of body weight 1 week before the start of CFC. PF-04995274 was dissolved in saline using an ultrasonic homogenizer (BioLogics, Model 3000, Manassas, Va.). Osmotic minipump implantation: ALZET osmotic minipumps (Model 2004, […], 28 days) were implanted subcutaneously under isoflurane anesthesia as previously described [S2]. Osmotic minipumps were rotated under the skin two to three times per week. Behavioral Assays: All experiments were approved by the Institutional Animal Care and Use Committee (IACUC) at the New York Psychiatric Institute (NYSPI). Elevated Plus Maze (EPM): Testing was performed as previously described [S3]. Briefly, the maze is a plus-cross-shaped apparatus consisting of four arms, two open and two enclosed by walls, linked by a central platform at a height of 50 cm from the floor. Mice were individually placed in the center of the maze facing an open arm and were allowed to explore the maze for 5 min. The time spent in and the number of entries into the open arms was used as an anxiety index. Videos were scored using ANY-maze behavior tracking software (Stoelting, Wood Dale, Ill.). Novelty-Suppressed Feeding: The NSF is a conflict test that elicits competing motivations: the drive to eat and the fear of venturing into the center of a brightly lit arena. The latency to feed is used as an index of anxiety-like behavior, because classical anxiolytic drugs decrease this measure. The NSF test was carried out during an 8 min period as previously described [S3]. Briefly, the testing apparatus consisted of a plastic box (50×50×20 cm), the floor of which was covered with approximately 2 cm of bedding. For 129S6/SvEv experiments, mice were food restricted for 12 h. For the C57BL/6N experiments, mice were food restricted for 24 h. […]"}, "129S6/SvEv mice [2]": {"system": "129S6/SvEv mice", "test": "Forced swim test (FST) after CFC", "assay_type": "in vivo", "procedure": "as §1"}, "CA3 pyramidal cells": {"system": "CA3 pyramidal cells", "test": "Whole-cell voltage clamp recordings of spontaneous EPSCs in CA3 slices", "assay_type": "cell-based, mice", "settings": "(R,S)-ketamine 30 mg/kg or prucalopride 3 mg/kg injected 1 week before slicing", "procedure": "as §1"}, "5-HT4R": {"molecular_target": "5-HT4R", "settings": "cited from earlier work"}, "[3]": {"molecular_target": "hERG (human Ether-a-go-go Related Gene) channels (Homo sapiens, UniProt Q12809)", "sequence (Q12809 whole entry)": "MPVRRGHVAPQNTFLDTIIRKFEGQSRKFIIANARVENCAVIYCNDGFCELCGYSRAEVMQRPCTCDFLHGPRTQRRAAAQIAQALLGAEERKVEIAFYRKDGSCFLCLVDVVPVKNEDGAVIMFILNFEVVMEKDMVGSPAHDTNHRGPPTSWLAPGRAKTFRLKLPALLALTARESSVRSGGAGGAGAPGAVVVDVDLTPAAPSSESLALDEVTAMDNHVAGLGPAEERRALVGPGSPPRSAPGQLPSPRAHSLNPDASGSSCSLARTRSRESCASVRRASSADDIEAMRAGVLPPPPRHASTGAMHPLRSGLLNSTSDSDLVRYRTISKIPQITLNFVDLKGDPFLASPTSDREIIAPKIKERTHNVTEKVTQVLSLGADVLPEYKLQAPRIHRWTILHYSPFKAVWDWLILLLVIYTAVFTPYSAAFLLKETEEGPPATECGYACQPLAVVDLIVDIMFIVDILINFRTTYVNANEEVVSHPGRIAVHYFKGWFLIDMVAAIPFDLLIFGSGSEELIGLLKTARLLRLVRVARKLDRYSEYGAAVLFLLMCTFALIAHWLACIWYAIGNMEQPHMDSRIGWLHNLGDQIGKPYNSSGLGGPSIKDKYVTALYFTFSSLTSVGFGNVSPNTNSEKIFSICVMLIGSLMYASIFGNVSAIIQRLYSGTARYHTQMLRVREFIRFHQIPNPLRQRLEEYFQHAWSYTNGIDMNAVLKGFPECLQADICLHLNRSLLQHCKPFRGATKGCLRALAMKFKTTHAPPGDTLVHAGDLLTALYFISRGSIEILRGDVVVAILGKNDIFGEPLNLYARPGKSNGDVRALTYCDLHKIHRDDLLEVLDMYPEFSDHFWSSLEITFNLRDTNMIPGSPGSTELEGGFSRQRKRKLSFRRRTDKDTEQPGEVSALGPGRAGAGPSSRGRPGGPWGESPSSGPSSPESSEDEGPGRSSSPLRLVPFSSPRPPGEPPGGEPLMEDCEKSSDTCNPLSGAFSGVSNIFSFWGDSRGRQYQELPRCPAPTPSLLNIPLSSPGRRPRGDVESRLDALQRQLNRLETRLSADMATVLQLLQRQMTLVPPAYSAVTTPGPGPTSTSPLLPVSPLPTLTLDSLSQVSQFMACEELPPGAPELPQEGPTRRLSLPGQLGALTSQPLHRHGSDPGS", "settings": "cited from earlier work"}, "[4]": {"settings": "FIG. 4 cohort, Male, FIG. 4C, RMANOVA, Fisher's LSD"}, "[5]": {"settings": "FIG. 4 cohort, Male, FIG. 4D, ANOVA, Fisher's LSD"}, "[6]": {"settings": "FIG. 4 cohort, Male, FIG. 4F, RMANOVA, Fisher's LSD"}, "[7]": {"settings": "FIG. 4 cohort, Male, FIG. 4G, ANOVA, Fisher's LSD"}},
  "note": "Counter-ions that a name gives are not always drawn.",
  "data": [
    {"smiles": "COCCCN1CCC(NC(=O)c2cc(Cl)c(N)c3c2OCC3)CC1", "note": "[Prucalopride, 4-amino-5-chloro-2,3-dihydro-N-[1-3-methoxypropyl)-4-piperidinyl]-7-benzofuran carboxamide monohydrochloride]", "values": [
      {"measurement": "p, CFC Re-exposure Freezing (%), Prucalopride (3 mg/kg) vs. PF04995274 (3 mg/kg)", "setting": "129S6/SvEv mice [1]; [4]", "result": 0.0014},
      {"measurement": "p, CFC Re-exposure Freezing (%), Prucalopride (3 mg/kg) vs. PF04995274 (10 mg/kg)", "setting": "129S6/SvEv mice [1]; [4]", "result": 0.2229},
      {"measurement": "p, CFC Re-exposure Freezing (%), Prucalopride (3 mg/kg) vs. Prucalopride (10 mg/kg)", "setting": "129S6/SvEv mice [1]; [4]", "result": 0.0004},
      {"measurement": "p, CFC Re-exposure Freezing (%), Prucalopride (10 mg/kg) vs. PF04995274 (3 mg/kg)", "setting": "129S6/SvEv mice [1]; [4]", "result": 0.7981},
      {"measurement": "p, CFC Re-exposure Freezing (%), Prucalopride (10 mg/kg) vs. PF04995274 (10 mg/kg)", "setting": "129S6/SvEv mice [1]; [4]", "result": 0.0568},
      {"measurement": "p, CFC Re-exposure Freezing (%), Saline vs. Prucalopride (3 mg/kg)", "setting": "129S6/SvEv mice [1]; [4]", "result": 0.0004},
      {"measurement": "p, CFC Re-exposure Freezing (%), Saline vs. Prucalopride (10 mg/kg)", "setting": "129S6/SvEv mice [1]; [4]", "result": 0.4723},
      {"measurement": "p, CFC Re-exposure, Prucalopride (3 mg/kg) vs. PF04995274 (3 mg/kg)", "setting": "129S6/SvEv mice [1]; [5]", "result": 0.0014},
      {"measurement": "p, CFC Re-exposure, Prucalopride (3 mg/kg) vs. PF04995274 (10 mg/kg)", "setting": "129S6/SvEv mice [1]; [5]", "result": 0.2229},
      {"measurement": "p, CFC Re-exposure, Prucalopride (3 mg/kg) vs. Prucalopride (10 mg/kg)", "setting": "129S6/SvEv mice [1]; [5]", "result": 0.0004},
      {"measurement": "p, CFC Re-exposure, Prucalopride (10 mg/kg) vs. PF04995274 (3 mg/kg)", "setting": "129S6/SvEv mice [1]; [5]", "result": 0.7981},
      {"measurement": "p, CFC Re-exposure, Prucalopride (10 mg/kg) vs. PF04995274 (10 mg/kg)", "setting": "129S6/SvEv mice [1]; [5]", "result": 0.0568},
      {"measurement": "p, CFC Re-exposure, Saline vs. Prucalopride (3 mg/kg)", "setting": "129S6/SvEv mice [1]; [5]", "result": 0.0004},
      {"measurement": "p, CFC Re-exposure, Saline vs. Prucalopride (10 mg/kg)", "setting": "129S6/SvEv mice [1]; [5]", "result": 0.4723},
      {"measurement": "freezing during CFC training", "setting": "129S6/SvEv mice [1]; male 129S6/SvEv, (R,S)-ketamine 30, prucalopride 3 or 10, PF-04995274 3 or 10 mg/kg, 1 week before CFC, vs saline", "result": "comparable levels of freezing"},
      {"measurement": "freezing at re-exposure to the training context (learned fear) vs saline", "setting": "129S6/SvEv mice [1]; male 129S6/SvEv, single i.p. injection 1 week before CFC, re-exposure 5 days later, 3 mg/kg", "result": "attenuated learned fear"},
      {"measurement": "p, FST Day 2 Immobility Time (sec), Prucalopride (3 mg/kg) vs. PF04995274 (3 mg/kg)", "setting": "129S6/SvEv mice [2]; [6]", "result": 0.2475},
      {"measurement": "p, FST Day 2 Immobility Time (sec), Prucalopride (3 mg/kg) vs. PF04995274 (10 mg/kg)", "setting": "129S6/SvEv mice [2]; [6]", "result": 0.4224},
      {"measurement": "p, FST Day 2 Immobility Time (sec), Prucalopride (3 mg/kg) vs. Prucalopride (10 mg/kg)", "setting": "129S6/SvEv mice [2]; [6]", "result": 0.0568},
      {"measurement": "p, FST Day 2 Immobility Time (sec), Prucalopride (10 mg/kg) vs. PF04995274 (3 mg/kg)", "setting": "129S6/SvEv mice [2]; [6]", "result": 0.6674},
      {"measurement": "p, FST Day 2 Immobility Time (sec), Prucalopride (10 mg/kg) vs. PF04995274 (10 mg/kg)", "setting": "129S6/SvEv mice [2]; [6]", "result": 0.0209},
      {"measurement": "p, FST Day 2 Immobility Time (sec), Saline vs. Prucalopride (3 mg/kg)", "setting": "129S6/SvEv mice [2]; [6]", "result": 0.0052},
      {"measurement": "p, FST Day 2 Immobility Time (sec), Saline vs. Prucalopride (10 mg/kg)", "setting": "129S6/SvEv mice [2]; [6]", "result": 0.1772},
      {"measurement": "p, FST Day 2 Immobility Time (min 3-6) (sec), Prucalopride (3 mg/kg) vs. PF04995274 (3 mg/kg)", "setting": "129S6/SvEv mice [2]; [7]", "result": 0.4089},
      {"measurement": "p, FST Day 2 Immobility Time (min 3-6) (sec), Prucalopride (3 mg/kg) vs. PF04995274 (10 mg/kg)", "setting": "129S6/SvEv mice [2]; [7]", "result": 0.3387},
      {"measurement": "p, FST Day 2 Immobility Time (min 3-6) (sec), Prucalopride (3 mg/kg) vs. Prucalopride (10 mg/kg)", "setting": "129S6/SvEv mice [2]; [7]", "result": 0.0622},
      {"measurement": "p, FST Day 2 Immobility Time (min 3-6) (sec), Prucalopride (10 mg/kg) vs. PF04995274 (3 mg/kg)", "setting": "129S6/SvEv mice [2]; [7]", "result": 0.4653},
      {"measurement": "p, FST Day 2 Immobility Time (min 3-6) (sec), Saline vs. Prucalopride (3 mg/kg)", "setting": "129S6/SvEv mice [2]; [7]", "result": 0.0093},
      {"measurement": "p, FST Day 2 Immobility Time (min 3-6) (sec), Saline vs. Prucalopride (10 mg/kg)", "setting": "129S6/SvEv mice [2]; [7]", "result": 0.2443},
      {"measurement": "p, FST Day 2 Immobility Time (min 3-6) (sec), Prucalopride (10 mg/kg) vs. PF04995274", "setting": "129S6/SvEv mice [2]; FIG. 4 cohort, Male, FIG. 4G, ANOVA, Fisher's LSD, PF04995274 dose stands below the shown rows", "result": 0.0156},
      {"measurement": "immobility, FST day 1", "setting": "129S6/SvEv mice [2]; male 129S6/SvEv, (R,S)-ketamine 30, prucalopride 3 or 10, PF-04995274 3 or 10 mg/kg", "result": "comparable levels of immobility"},
      {"measurement": "immobility time, FST day 2 vs saline", "setting": "129S6/SvEv mice [2]; male 129S6/SvEv, single injection 1 week before CFC, 3 mg/kg", "result": "decreased immobility time"},
      {"measurement": "average EPSC amplitude vs saline", "setting": "CA3 pyramidal cells", "result": "no differences"},
      {"measurement": "large AMPA receptor-mediated bursts of EPSCs", "setting": "CA3 pyramidal cells", "result": "not present"},
      {"measurement": "number of EPSCs vs saline", "setting": "CA3 pyramidal cells", "result": "no differences"},
      {"measurement": "Affinity (pKi)", "setting": "5-HT4R", "result": "8.1-8.6"},
      {"measurement": "affinity for the hERG channels", "setting": "[3]", "result": "no affinity"}
    ]}
  ]
}
